Assay in all cases: relative viability (nuclei count vs DMSO), 5 days (fraction); higher = more cells survive
Compound in assay [1]: C1CNCCC1C2=CC(=NN2)C3=CC=NC=C3
A digest of the protocol:
(§1)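 Acceptance criteria were a control CV below 25% and at least one doubling per plate. Lung cancer cell lines in 1536-well plates got five library-drug doses (not always all listed) √10 apart by pinning and were left 5 days with no medium change. Viability divides treated-well nuclei by vehicle-well nuclei and is the median across plates. Nuclei were counted by MetaXpress from 4× Hoechst images.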

Compound in assay [2]: C[C@@H](N)c1ccc(C(=O)Nc2ccnc3[nH]ccc23)cc1
A digest of the protocol:
as §1

Compound in a further assay: O[C@H]1CC[C@H](Nc2ncc3nc(Nc4c(F)cc(F)cc4F)n([C@H]4CCOC4)c3n2)CC1 [Tanzisertib]
A digest of the protocol:
as §1

As for NCI-H2347, the relative viability in assay [1] (0.08 µM) was determined as 1.01; in assay [1] (0.8 µM), 0.869; in assay [1] (2.53 µM) it was 1.08; in assay [1] (8 µM) it was 1.12; in assay [2] (0.04 µM), 0.971; in assay [2] (0.1265 µM), 0.995. In addition, the relative viability in assay [2] (0.4 µM) is 1.14; in assay [2] (1.265 µM) it was 0.816; in assay [2] (4 µM), 0.956; with Tanzisertib (0.08 µM), 1.11; with Tanzisertib (0.253 µM), 0.956; in the assay with Tanzisertib (0.8 µM) it was 1.06. Moreover, the relative viability with Tanzisertib (2.53 µM) turned out to be 1.08; in the assay with Tanzisertib (8 µM), 0.965.

As for NCI-H2405, the relative viability is 1.04 in assay [1] (0.08 µM); 0.901 in assay [1] (0.8 µM); 1.02 in assay [1] (2.53 µM); 0.961 in assay [1] (8 µM); 0.653 in assay [2] (0.04 µM); 1.16 in assay [2] (0.1265 µM). Further, the relative viability was 0.998 in assay [2] (0.4 µM); 0.569 in assay [2] (1.265 µM); 0.376 in assay [2] (4 µM); 1.12 with Tanzisertib (0.08 µM); 1.02 with Tanzisertib (0.253 µM); 1.1 in the assay with Tanzisertib (0.8 µM). For the same cell line, the relative viability amounted to 1.04 in the assay with Tanzisertib (2.53 µM) and 0.695 with Tanzisertib (8 µM).

Regarding NCI-H3122, the relative viability was found to be 0.978 in assay [1] (0.08 µM); 1.03 in assay [1] (0.8 µM); 1.02 in assay [1] (2.53 µM); 0.988 in assay [1] (8 µM); 0.997 in assay [2] (0.04 µM); 1.04 in assay [2] (0.1265 µM). Also, the relative viability in assay [2] (0.4 µM) was 0.975; in assay [2] (1.265 µM) it was 1; in assay [2] (4 µM) it was 0.894; with Tanzisertib (0.08 µM), 1.02; in the assay with Tanzisertib (0.253 µM), 0.964; with Tanzisertib (0.8 µM), 1.03. The relative viability with Tanzisertib (2.53 µM) was determined as 1; with Tanzisertib (8 µM) it was 0.936.

Consider PC-3 [JPC-3], for which the relative viability in assay [1] (0.08 µM) was 1.02; in assay [1] (0.8 µM), 1; in assay [1] (2.53 µM), 1.08; in assay [1] (8 µM) it was 1.03; in assay [2] (0.04 µM), 0.986; in assay [2] (0.1265 µM), 1.04. Further, the relative viability in assay [2] (0.4 µM) was 0.997; in assay [2] (1.265 µM) it was 0.949; in assay [2] (4 µM), 0.884; with Tanzisertib (0.08 µM), 1.02; in the assay with Tanzisertib (0.253 µM) it was 1.06; with Tanzisertib (0.8 µM), 1.11. Besides, the relative viability came to 0.983 with Tanzisertib (2.53 µM) and 0.871 in the assay with Tanzisertib (8 µM).

Regarding PC-14, the relative viability in assay [1] (0.08 µM) amounted to 1.01; in assay [1] (0.8 µM) it was 1.06; in assay [1] (2.53 µM) it was 1.13; in assay [1] (8 µM) it was 0.987; in assay [2] (0.04 µM) it was 0.906; in assay [2] (0.1265 µM), 0.979. Also, the relative viability is 0.995 in assay [2] (0.4 µM); 0.707 in assay [2] (1.265 µM); 0.779 in assay [2] (4 µM); 1.06 with Tanzisertib (0.08 µM); 1.07 with Tanzisertib (0.253 µM); 0.996 with Tanzisertib (0.8 µM). Further, the relative viability with Tanzisertib (2.53 µM) is 0.984; with Tanzisertib (8 µM) it was 0.546.

For RERF-LC-KJ, the relative viability in assay [1] (0.08 µM) is 0.868; in assay [1] (0.8 µM) it was 1.01; in assay [1] (2.53 µM), 1.03; in assay [1] (8 µM) it was 0.943; in assay [2] (0.04 µM), 1.02; in assay [2] (0.1265 µM), 1.01. Further, the relative viability in assay [2] (0.4 µM) was 1.16; in assay [2] (1.265 µM), 1.08; in assay [2] (4 µM) it was 1.02; with Tanzisertib (0.08 µM) it was 1.13; in the assay with Tanzisertib (0.253 µM) it was 1; with Tanzisertib (0.8 µM), 1.01. The relative viability was 0.972 with Tanzisertib (2.53 µM) and 0.87 with Tanzisertib (8 µM).

With SK-LU-1, the relative viability in assay [1] (0.08 µM) came to 1.04; in assay [1] (0.8 µM), 0.972; in assay [1] (2.53 µM), 1.2; in assay [1] (8 µM), 1.02; in assay [2] (0.04 µM), 0.986; in assay [2] (0.1265 µM), 1.04. For the same cell line, the relative viability in assay [2] (0.4 µM) amounted to 1; in assay [2] (1.265 µM), 0.886; in assay [2] (4 µM) it was 0.833; with Tanzisertib (0.08 µM) it was 1.19; with Tanzisertib (0.253 µM), 1.05; with Tanzisertib (0.8 µM), 1.02. Besides, the relative viability is 1.1 in the assay with Tanzisertib (2.53 µM) and 1.01 in the assay with Tanzisertib (8 µM).

On to SK-MES-1, for which the relative viability in assay [1] (0.08 µM) amounted to 1.03; in assay [1] (0.8 µM) it was 0.925; in assay [1] (2.53 µM), 1.05; in assay [1] (8 µM), 0.999; in assay [2] (0.04 µM) it was 0.987; in assay [2] (0.1265 µM), 0.969. In addition, the relative viability came to 1 in assay [2] (0.4 µM); 0.878 in assay [2] (1.265 µM); 0.82 in assay [2] (4 µM); 1.08 in the assay with Tanzisertib (0.08 µM); 0.984 in the assay with Tanzisertib (0.253 µM); 0.975 in the assay with Tanzisertib (0.8 µM). The relative viability with Tanzisertib (2.53 µM) came out at 0.992; with Tanzisertib (8 µM), 0.808.

Consider SW 900, for which the relative viability in assay [1] (0.08 µM) was found to be 0.843; in assay [1] (0.8 µM) it was 0.67; in assay [1] (2.53 µM) it was 0.88; in assay [1] (8 µM), 0.995; in assay [2] (0.04 µM) it was 0.92; in assay [2] (0.1265 µM) it was 0.965. In addition, the relative viability worked out at 0.887 in assay [2] (0.4 µM); 1.24 in assay [2] (1.265 µM); 0.986 in assay [2] (4 µM); 0.811 with Tanzisertib (0.08 µM); 0.87 in the assay with Tanzisertib (0.253 µM); 0.936 in the assay with Tanzisertib (0.8 µM). Further, the relative viability was 1.18 in the assay with Tanzisertib (2.53 µM) and 0.691 with Tanzisertib (8 µM).

In the case of SW 1573, the relative viability was determined as 0.709 in assay [1] (0.08 µM); 1.06 in assay [1] (0.8 µM); 1.15 in assay [1] (2.53 µM); 1.09 in assay [1] (8 µM); 1.13 in assay [2] (0.04 µM); 1.04 in assay [2] (0.1265 µM). Moreover, the relative viability in assay [2] (0.4 µM) came to 1.08; in assay [2] (1.265 µM), 0.966; in assay [2] (4 µM), 0.803; in the assay with Tanzisertib (0.08 µM) it was 1.14; with Tanzisertib (0.253 µM), 0.938; with Tanzisertib (0.8 µM) it was 1. The relative viability with Tanzisertib (2.53 µM) came out at 1.01; with Tanzisertib (8 µM) it was 0.909.
